The subject of data set [1] is IL-6. Kind of data set: Inhibition of R848-induced IL-6 release in human PBMCs, IL-6 ELISA. The following applies: PBMC, compound 24 hours, then R848 10 µg/mL 5 hours. Format: cell-based. The method, then: Example 3: Detection of inhibition of R848-induced IL-6 release
Cryopreserved human PBMCs (Milestone® Biotechnologies, PB010C-W) were thawed and resuspended in RPMI-1640 medium (Gibco, 22400-105) supplemented with 10% fetal bovine serum (Gibco, 10099-141), 100 U/mL penicillin, and 100 µg/mL streptomycin (Gibco, 15140122). Subsequently, 190 µL of the PBMC suspension was added to each well of 96-well clear cell culture plates (Corning, 3599) to achieve a density of 1×10^5 cells/well. The cell plates were incubated at 37°C in a 5% CO2 incubator for 30 minutes. Then, 5 µL of diluted compound solution was added to the corresponding cell-seeded wells to achieve final concentrations ranging from 0.046 to 3,000 nM. The final concentration of DMSO was 0.1%. After the compound-treated cell plate was incubated at 37°C in a 5% CO2 incubator for 24 hours, 5 µL of R848 (MCE, HY-13740) was added to achieve a final concentration of 10 µg/mL. The cell plates were incubated again at 37°C in a 5% CO2 incubator for 5 hours, then centrifuged at 1,000 rpm for 1 minute. 100 µL of the cell supernatant from each well was transferred to a new 96-well clear cell culture plate for IL-6 concentration testing.
Interleukin-6 (IL-6) ELISA assay
The IL-6 concentration in the supernatant of R848-induced human PBMCs was determined using a Human IL-6 (interleukin-6) ELISA KIT (4Bio, CHE0009-048). IL-6 standard solutions at different concentrations, ranging from 3.9 to 250 pg/mL, were prepared according to the manufacturer's instructions. 100 µL of each concentration of the IL-6 standard solution and the pre-diluted test cell supernatant samples were added separately to anti-IL-6 antibody-coated and blocked clear 96-well plates, followed by incubation at 37°C for 1.5 hours. According to the product instructions, the plates were washed, 100 µL of biotinylated antibody was added, and the plates were incubated at 37°C for 1 hour. The plates were washed, 100 µL of enzyme conjugate working solution was added. The plates were incubated at 37°C for 30 minutes, and then washed. 100 µL of chromogenic substrate was added, and the plates were incubated at 37°C for 10-20 minutes. The reaction was terminated by adding 100 µL of stop solution. After the reaction, the OD value at 450 nm was measured in absorbance mode using an Envision microplate reader (PerkinElmer). A standard curve was plotted using the corrected OD values of the various concentrations of IL-6 standard solutions. The IL-6 concentration in each cell supernatant was then determined on the basis of the corresponding concentration for the corrected OD value of the test sample on the standard curve. […] Subsequently, the IC50 value of the compound was calculated by performing non-linear curve fitting of concentration versus inhibition rate using GraphPad Prism 9.

Data set [2] is described as follows: Pharmacokinetic detection in rats after intravenous injection and oral administration. The note with it: rat; for AUC / Cmax / half-life: in vivo, oral administration. Format: in vivo, Sprague-Dawley (SD) rats. The method, then:
Example 4. Pharmacokinetic detection
This study was designed to investigate the pharmacokinetic properties of the compounds in rats following intravenous injection and oral administration.
Experimental protocol: Six healthy male Sprague-Dawley (SD) rats were used for each compound, randomly divided into two groups of three animals each, with body weights ranging from 180-220 g. The rats were fasted overnight (10-14 hours) prior to administration, with free access to water, and food was restored 4 hours after administration. The compounds were formulated in a vehicle consisting of 5% DMSO + 10% solutol + 85% physiological saline (w/v). […] For A170, A177, and A180, the intravenous injection group received a dose of 1 mg/kg with an administration volume of 1 mL/kg, and the oral administration group received a dose of 5 mg/kg with an administration volume of 5 mL/kg. Blank blood samples were collected prior to administration. After administration, 0.2 mL of blood was collected from the jugular vein or other suitable methods at predetermined time points (0.083 h, 0.25 h, 0.5 h, 1 h, 2 h, 4 h, 8 h, 24 h) into EDTA-K2 anticoagulant tubes, and plasma was separated by centrifugation at 6800 g for 6 minutes. After the experiment, the concentration of the compound in plasma was quantitatively detected using liquid chromatography-tandem mass spectrometry (LCMS/MS). Pharmacokinetic parameters were calculated on the basis of the plasma concentration data at different time points using Phoenix WinNonlin version 8.3.5.

Data set [3] addresses T1, IRAK4 (Homo sapiens, UniProt Q9NWZ3).
T1 sequence (Q9NWZ3 1-460): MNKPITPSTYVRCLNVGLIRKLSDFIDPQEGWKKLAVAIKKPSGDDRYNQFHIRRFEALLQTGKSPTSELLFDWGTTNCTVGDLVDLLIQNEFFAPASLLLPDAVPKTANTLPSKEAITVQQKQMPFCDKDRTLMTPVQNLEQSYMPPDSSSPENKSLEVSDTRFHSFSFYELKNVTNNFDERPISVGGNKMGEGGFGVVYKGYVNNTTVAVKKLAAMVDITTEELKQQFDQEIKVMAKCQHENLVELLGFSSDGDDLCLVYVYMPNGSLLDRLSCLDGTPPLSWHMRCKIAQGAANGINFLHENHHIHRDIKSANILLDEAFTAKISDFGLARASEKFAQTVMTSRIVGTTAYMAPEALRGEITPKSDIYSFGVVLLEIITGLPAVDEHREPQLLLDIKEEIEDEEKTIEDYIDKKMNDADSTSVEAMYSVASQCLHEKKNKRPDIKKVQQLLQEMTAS
Kind of data set: Degradation of IRAK4 in THP1 cells, Western blot. Set-up: Degradation of IRAK4 in THP1 by compound; host or cells: THP-1. Format: cell-based. The note with it: THP-1 cells, 24 hours of incubation; for DC50: IRAK4 protein by Western blot, read-out: DC50; for Dmax: maximum degradation rate, read-out: Dmax. The method, boiled down: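 Degradation rate derived from densitometry of IRAK4 bands versus DMSO-treated controls. Read-out: anti-IRAK4 immunoblot (10% gel, 40 μg total protein per lane, BCA-normalised) of lysates from THP1 cells incubated with compound for 24 h.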

The target in data set [4] is T1, IRAK4. The following applies: Phase I clinical studies in hidradenitis suppurativa and atopic dermatitis; cited from earlier work.
The mark [5] stands for this setting: oral 5 mg/kg, intravenous 1 mg/kg.
Where [6] appears, read: oral 10 mg/kg, intravenous 2 mg/kg.

In data set [1], `Cn1c(=O)n(C2CCC(=O)NC2=O)c2ccc(N3CCC(CN4CCN(c5ccc(-n6cc(NC(=O)c7cccc(C(F)(F)F)n7)c(C(N)=O)n6)cc5)CC4)CC3)cc21` (stereo not shown) [Compound A177] yielded an IC50 of under 10 nM. In data set [2] (5 mg/kg), this molecule showed an AUC of 1230 ng·h/mL, a Cmax of 120 ng/mL and a half-life of 8 h. Further, the F in data set [2] (setting [5]) is 8%. Moreover, in data set [3], the DC50 is under 100 nM and the greatest degradation seen (Dmax) is over 60%.

Take `Cn1c(=O)n(C2CCC(=O)NC2=O)c2cccc(N3CCC(CN4CCN(c5ccc(-n6cc(NC(=O)c7cccc(C(F)(F)F)n7)c(C(N)=O)n6)cc5)CC4)CC3)c21` (stereo not shown) [Compound A178]: the IC50 in data set [1] is under 10 nM. In addition, in data set [2] (10 mg/kg), the exposure (AUC) was determined as 6560 ng·h/mL, the maximum concentration (Cmax) is 593 ng/mL and the half-life is 15 h. Also, the F in data set [2] (setting [6]) is reported as 30%. Besides, in data set [3], the DC50 was under 100 nM and the Dmax is over 60%.

As to `NC(=O)c1nn(-c2ccc(N3CCN(CC4CCN(c5ccc6c(c5)CN(C5CCC(=O)NC5=O)C6=O)CC4)CC3)cc2)cc1NC(=O)c1cccc(C(F)(F)F)n1` (stereo not shown) [Compound A169], the concentration for half-maximal inhibition (IC50) in data set [1] was under 10 nM. In data set [2] (10 mg/kg), this molecule had an area under the curve (AUC) of 3520 ng·h/mL, a Cmax of 408 ng/mL and a half-life of 5 h. The molecule also showed a F in data set [2] (setting [6]) of 16%. Also, in data set [3], the 50% degradation concentration (DC50) was under 100 nM and the greatest degradation seen (Dmax) was over 60%.

`NC(=O)c1nn(-c2ccc(N3CCN(CC4CCN(c5ccc6c(c5)CN(C5CCC(=O)NC5=O)C6=O)CC4(F)F)CC3)cc2)cc1NC(=O)c1cccc(C(F)(F)F)n1` (stereo not shown) [Compound A170]: the concentration for half-maximal inhibition (IC50) in data set [1] is under 10 nM. For the same molecule, in data set [2] (5 mg/kg), the AUC was 2160 ng·h/mL, the Cmax stood at 285 ng/mL and the half-life was 7 h. The molecule further displayed a F in data set [2] (setting [5]) of 28%. Also, in data set [3], the DC50 was under 100 nM and the Dmax is over 60%.

Take `Cn1c(=O)n(C2CCC(=O)NC2=O)c2cccc(C#CCOC3CCN(CC4CCC(n5cc(NC(=O)c6cnn7ccc(N8CC9CC8CO9)nc67)c(C(F)F)n5)CC4)CC3)c21` (stereo not shown) [Control compound 1, reference compound]: in data set [2] (10 mg/kg), the AUC stood at 428 ng·h/mL, the maximum concentration (Cmax) worked out at 98 ng/mL and the half-life was 4 h. Also, the F in data set [2] (setting [6]) is reported as 8%.

For `NC(=O)c1nn(-c2ccc(N3CCN(CCN4CCN(c5ccc6c(c5)C(=O)N(C5CCC(=O)NC5=O)C6=O)CC4)CC3)cc2)cc1NC(=O)c1cccc(C(F)(F)F)n1` (stereo not shown) [Compound A173], in data set [1], the 50% inhibitory concentration (IC50) is under 10 nM. In data set [2] (10 mg/kg), this molecule gave an exposure (AUC) of 1130 ng·h/mL, a Cmax of 107 ng/mL and a half-life of 21 h. This molecule came in with a F in data set [2] (setting [6]) of 18%.

Turning to `Cn1c(=O)n(C2CCC(=O)NC2=O)c2cccc(C#CCOC3CCN(C[C@H]4CC[C@H](n5cc(NC(=O)c6cnn7ccc(N8C[C@H]9C[C@@H]8CO9)nc67)c(C(F)F)n5)CC4)CC3)c21` (stereo partly shown) [KT-474], the safety and tolerability result in data set [4] is “favorable safety and tolerability”.

In data set [1], `Cn1c(-c2ccc(N3CCC(CN4CCN(c5ccc(-n6cc(NC(=O)c7cccc(C(F)(F)F)n7)c(C(N)=O)n6)cc5)CC4)CC3)cc2)nn(C2CCC(=O)NC2=O)c1=O` (stereo not shown) [Compound A189] displayed an IC50 of 10 to 30 nM. In data set [3], the 50% degradation concentration (DC50) fell in the range of 100 to 1000 nM and the Dmax was over 60%.

Turning to `Cn1c(-c2ccc(N3CCC(CN4CCN(c5ccc(-n6cc(NC(=O)c7cccc(C(F)(F)F)n7)c(C(N)=O)n6)cc5)CC4)C3)cc2)nn(C2CCC(=O)NC2=O)c1=O` (stereo not shown) [Compound A187], in data set [1], the IC50 is under 10 nM. Further, in data set [3], the DC50 is under 100 nM and the maximal degradation (Dmax) is over 60%.

In data set [1], `NC(=O)c1nn(-c2ccc(N3CCN(CC4CCN(c5ccc(NC6CCC(=O)NC6=O)cc5F)CC4)CC3)cc2)cc1NC(=O)c1cccc(C(F)(F)F)n1` (stereo not shown) [Compound A195] registered a half-maximal inhibitory concentration (IC50) of under 10 nM. In data set [2] (10 mg/kg), this molecule had an area under the curve (AUC) of 19300 ng·h/mL, a Cmax of 1250 ng/mL and a half-life of 15 h. For the same molecule, in data set [2] (setting [6]), the F is recorded as 52%.

In turn, `COc1ccc(C(=O)N2CCC(CCN3CCN(c4ccc(-n5cc(NC(=O)c6cccc(C(F)(F)F)n6)c(C(N)=O)n5)cc4)CC3)CC2)cc1N1CCC(=O)NC1=O` [Compound A144] had a 50% inhibitory concentration (IC50) in data set [1] of under 10 nM. In data set [3], the half-maximal degradation concentration (DC50) is under 100 nM and the maximal degradation (Dmax) is over 60%.

For `Cn1c(=O)n(C2CCC(=O)NC2=O)c2cccc(N3CCC4(CCN(Cc5ccc(-n6cc(NC(=O)c7cccc(C(F)(F)F)n7)c(C(N)=O)n6)cc5)C4)CC3)c21` (stereo not shown) [Compound A140], the IC50 in data set [1] was under 10 nM. In addition, in data set [3], the DC50 was under 100 nM and the Dmax is over 60%.

(Values after EP4763839A1 (Pamplona Therapeutics (Shenzhen) Co., Ltd., priority 2023, dated 2025).)
